Data taken from patent US20240139197A1, “INHIBITION OF KDM5A FOR PROMOTING ANTIGEN PRESENTATION, INCREASING CD8+ T CELL INFILTRATION AND BOOSTING ANTI-TUMOR IMMUNE RESPONSE” (The Wistar Institute of Anatomy and Biology, priority 2022, published 2024).

Assays:
[1] = tested on: H2-K1 on ID8 cells; experiment: cell surface MHC class I H2-K1 by FACS, ID8; type: cell-based, mouse; conditions: ID8, in response to IFNγ
Source text: FIG. 4A-FIG. 4M show KDM5A regulates antigen processing and presentation pathway. (FIG. 4A) Experimental strategy used to identify Kdm5a direct target genes. […] (FIG. 4B) CUT&RUN tracks of the newly identified Kdm5a target gene H2-K1 for Kdm5a and H3K4me3 in ID8 cells. (FIG. 4C) Expression of H2-K1 in doxycycline-inducible shKdm5a ID8 cells, Kdm5a inhibitor CPI-455, or Kdm5a knockout cells with or without IFNγ stimulation determined by RT-qPCR. (FIG. 4D) Cell surface expression of H2-K1 in control and Kdm5a knockout ID8 cells with or without IFNy stimulation was determined by FACS analysis. (FIG. 4E) Quantification of FIG. 4D. (FIG. 4F) Cell surface expression of H2-K1 in control and doxycyclineinducible Kdm5a-knockdown ID8 cells with or without IFNγ stimulation was determined by FACS analysis. (FIG. 4G) Quantification of FIG. 4F. (FIG. 4H) Cell surface expression of H2-K1 in D8 cells treated with vehicle or CPI-455 with or without IFNγ stimulation was determined by FACS analysis. (FIG. 4I) Quantification of FIG. 4H; An isotype matched IgG was used as a negative control for all the FACS analysis. […] Data represent mean±SEM of three biological repeats; P-value was calculated by using a two-tailed Student t test except in FIG. 4L by using Pearson r analysis test and FIG. 4M by using Fisher's exact test. […]

[2] = tested on: ID8 cells; experiment: cell viability by colony formation assay, ID8; type: cell-based, mouse; conditions: ID8, 10 μM, 8 days
Description: FIG. 2A-FIG. 2J show KDM5A inhibition suppresses tumor growth in vivo in an immune-competent mouse model of ovarian cancer. (FIG. 2A) Expression of Kdm5a, H3K4me3, and a loading control β-actin in doxycycline-inducible shKdm5a ID8 mouse EOC cells treated with or without 2 μg/mL of doxycycline. (FIG. 2B) ID8 cells were plated into 24 well plates and treated with 2 μg/mL of doxycycline the same day. Cells were incubated for 8 days. Relative cell viability was determined by colony formation assay. (FIG. 2C) Expression of Kdm5a, H3K4me3, and a loading control β-actin in ID8 cells treated with 10uM CPI-455 or vehicle control. (FIG. 2D) ID8 cells were plated into 24 well plates and incubated with 10 μM CPI-455 for 8 days with fresh drug-containing media every 3 days. Relative cell viability was determined by colony formation assay. (FIG. 2E) Ascites produced in C57BL/6 mice injected with doxycycline-inducible shKdm5a ID8 cells treated with control or doxycycline containing food. (FIG. 2F) Quantification of ascites volumes from FIG. 2E. (FIG. 2G) Kaplan-Meier survival curves for the indicated groups. […] (FIG. 21) Quantification of ascites volumes from FIG. 2H. […] Data represent mean±SEM of three biological repeats or 5 mice per group; P-value was calculated by using a two-tailed Student t test except in FIG. 2G and FIG. 2J by log rank tests. […]

CPI-455
MHC class I presence on cell surface [1]: increased MHC class I presence on cell surface | cell viability [2]: did not affect cell viability
